Type in all cases: cell-based
The target of one assay is T1, BRAF G469A (Homo sapiens, UniProt P15056, G469A).
T1 construct: Horizon Discovery (HCT-116 BRAF−/− cells); host or cells: HCT-116 BRAF−/− cells, clone 34, lentiviral transduction
The assay can be described thus: BRAF HiBiT degradation assay, C-terminal HiBiT-tagged BRAF G469A overexpressed in HCT-116 BRAF−/− cells (clone 34), Nano-Glo HiBiT Lytic assay. The method, boiled down:
(§1)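 We quantified degradation of the C-terminally HiBiT-tagged, overexpressed mutant by lytic luminescence, normalizing to DMSO-treated cells with wild-type HCT-116 background subtracted. Dose series ran from 1 μM to 0.01 nM at 0.2% DMSO. Observed Dmax is % degraded at maximal effect.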

Another assay deals with T2, BRAF G466V (Homo sapiens, UniProt P15056, G466V).
T2 construct: Horizon Discovery (HCT-116 BRAF−/− cells); host or cells: HCT-116 BRAF−/− cells, clone 8, lentiviral transduction
Kind of assay: BRAF HiBiT degradation assay, C-terminal HiBiT-tagged BRAF G466V overexpressed in HCT-116 BRAF−/− cells (clone 8), Nano-Glo HiBiT Lytic assay. The method, boiled down:
as §1

A further assay concerns the target T3, BRAF V600E (Homo sapiens, UniProt P15056, V600E).
T3 construct: endogenous C-terminal HiBiT fusion tag on BRAF V600E allele; endogenous in cells; host or cells: A375 clone 1F10 (CRISPR-Cas9 knock-in of the HiBiT tag; parental A375 from ATCC)
The assay can be described thus: BRAF HiBiT degradation assay, C-terminal HiBiT-tagged BRAF V600E A375 cells (clone 1F10), Nano-Glo HiBiT Lytic assay. Conditions: for Dmax: A-375. The method, boiled down: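 Steps: seed HiBiT-tagged A375 clone 1F10 cells; incubate 24 h, 37 °C, 5% CO2; add compound (11 half-log points from 1 μM, 0.2% DMSO); lyse with HiBiT detection reagent plus LgBiT for 10 min; read luminescence; fit % protein remaining against concentration.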

A further assay deals with T4, BRAF D594G (Homo sapiens, UniProt P15056, D594G).
T4 construct: Horizon Discovery (HCT-116 BRAF−/− cells); host or cells: HCT-116 BRAF−/− cells, clone 63, lentiviral transduction
The assay can be described thus: BRAF HiBiT degradation assay, C-terminal HiBiT-tagged BRAF D594G overexpressed in HCT-116 BRAF−/− cells (clone 63), Nano-Glo HiBiT Lytic assay. The method, boiled down: as §1

Where [1] appears, read: Class 2, BRAF G469A, DC50 at 50%: fitted conc. at Y=50.
Setting [2] is: HCT-116, Class 2, BRAF G469A, percentage protein degraded at maximal compound effect relative to DMSO.
[3] abbreviates: BRAF G466V, DC50 at 50%: fitted conc. at Y=50.
Where [4] appears, read: HCT-116, BRAF G466V, percentage protein degraded at maximal compound effect relative to DMSO.
The mark [5] stands for this setting: A375 (BRAF V600E), DC50 at 50%: fitted conc. at Y=50.
The mark [6] stands for this setting: A375 (BRAF V600E), percentage protein degraded at maximal compound effect relative to DMSO.
[7] abbreviates: BRAF D594G, DC50 at 50%: fitted conc. at Y=50.
Where [8] appears, read: HCT-116, BRAF D594G, percentage protein degraded at maximal compound effect relative to DMSO.
Setting [9] is: BRAF G469A (Class 2), HCT-116 BRAF−/− cells, DC50 at 50% degradation.
The mark [10] stands for this setting: BRAF G469A (Class 2), HCT-116 BRAF−/− cells, observed Dmax relative to DMSO control.
[11] abbreviates: BRAF G466V (Class 3), HCT-116 BRAF−/− cells, DC50 at 50% degradation.
Where [12] appears, read: BRAF G466V (Class 3), HCT-116 BRAF−/− cells, observed Dmax relative to DMSO control.
The mark [13] stands for this setting: A375 (BRAF V600E, Class 1), DC50 at 50% degradation.
The mark [14] stands for this setting: A375 (BRAF V600E, Class 1), observed Dmax, % protein degraded relative to DMSO control.
Setting [15] is: BRAF D594G (Class 3), HCT-116 BRAF−/− cells, DC50 at 50% degradation.
Where [16] appears, read: BRAF D594G (Class 3), HCT-116 BRAF−/− cells, observed Dmax relative to DMSO control.

The structures appear in SMILES notation. Some results are limits rather than exact numbers.

T3 sequence (P15056 whole entry V600E, the tested form may be a part): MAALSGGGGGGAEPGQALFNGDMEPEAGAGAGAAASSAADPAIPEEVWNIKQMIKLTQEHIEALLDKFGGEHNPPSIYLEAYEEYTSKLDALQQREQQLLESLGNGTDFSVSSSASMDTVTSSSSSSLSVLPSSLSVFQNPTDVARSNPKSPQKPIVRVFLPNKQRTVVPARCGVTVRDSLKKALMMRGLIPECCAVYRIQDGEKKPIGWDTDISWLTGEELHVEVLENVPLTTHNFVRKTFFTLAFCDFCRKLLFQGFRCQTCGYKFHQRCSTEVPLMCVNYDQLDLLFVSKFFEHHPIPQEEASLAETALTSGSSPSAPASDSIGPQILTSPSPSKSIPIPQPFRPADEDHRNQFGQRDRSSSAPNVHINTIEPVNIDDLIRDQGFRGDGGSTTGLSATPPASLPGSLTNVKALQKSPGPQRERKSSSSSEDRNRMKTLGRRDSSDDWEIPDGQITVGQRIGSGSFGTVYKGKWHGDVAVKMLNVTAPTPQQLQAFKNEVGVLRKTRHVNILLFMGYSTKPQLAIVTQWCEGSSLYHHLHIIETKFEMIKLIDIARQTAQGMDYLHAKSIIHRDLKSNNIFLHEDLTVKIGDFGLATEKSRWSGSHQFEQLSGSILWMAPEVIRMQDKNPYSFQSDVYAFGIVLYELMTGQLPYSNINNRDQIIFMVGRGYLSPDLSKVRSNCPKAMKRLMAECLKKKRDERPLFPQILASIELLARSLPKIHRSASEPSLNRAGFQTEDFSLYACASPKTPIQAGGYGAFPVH
T1 sequence (P15056 whole entry G469A): as the sequence (P15056 whole entry V600E, the tested form may be a part) above, with G469A, E600V counted along it
T2 sequence (P15056 whole entry G466V): as the sequence (P15056 whole entry V600E, the tested form may be a part) above, with G466V, E600V counted along it
T4 sequence (P15056 whole entry D594G): as the sequence (P15056 whole entry V600E, the tested form may be a part) above, with D594G, E600V counted along it

Consider `CCN(C)S(=O)(=O)Nc1cccc(-c2nc(C)sc2-c2ccnc(Nc3ccc(N4CCN(CC5CCN(c6ccc([C@H]7CCC(=O)NC7=O)cn6)CC5)CC4)cn3)n2)c1F` [Compound 27, (3R)-3-{6-[4-({4-[6-({4-[4-(3-{[ethyl(methyl)sulfamoyl]amino}-2-fluorophenyl)-2-methyl-1,3-thiazol-5-yl]pyrimidin-2-yl}amino)pyridin-3-yl]piperazin-1-yl}methyl)piperidin-1-yl]pyridin-3-yl}piperidine-2,6-dione], for which the DC50 was 50 to 500 nM at BRAF G469A (setting [1]), 10 to 50 nM at BRAF G466V (setting [3]), below 10 nM on BRAF V600E (setting [5]) and 10 to 50 nM at BRAF D594G (setting [7]). Also, the maximal degradation (Dmax) was 30 to 70% at BRAF G469A (setting [2]), above 70% on BRAF G466V (setting [4]), above 70% at BRAF V600E (setting [6]) and 30 to 70% on BRAF D594G (setting [8]).

On to `O=C1CC[C@H](c2ccc(N3CCC(CN4CCN(c5ccc(-n6cc(-c7cc(Cl)cc(NS(=O)(=O)N8CCCC8)c7F)c(-c7ccncc7)n6)cc5)CC4)CC3)nc2)C(=O)N1` [Compound 285, N-{5-chloro-3-[1-(4-{4-[(1-{5-[(3R)-2,6-dioxopiperidin-3-yl]pyridin-2-yl}piperidin-4-yl)methyl]piperazin-1-yl}phenyl)-3-(pyridin-4-yl)-1H-pyrazol-4-yl]-2-fluorophenyl}pyrrolidine-1-sulfonamide], for which the DC50 at BRAF G469A (setting [9]), at BRAF G466V (setting [11]), at BRAF V600E (setting [13]) and at BRAF D594G (setting [15]) was below 10 nM in each case. Also, the Dmax on BRAF G469A (setting [10]) was above 70%; on BRAF G466V (setting [12]), above 70%; on BRAF V600E (setting [14]) it was above 70%; at BRAF D594G (setting [16]) it was 30 to 70%.

As for `O=C1CC[C@H](c2ccc(N3CCC(CN4CCN(c5ccc(-n6cc(-c7cc(C(F)F)cc(NS(=O)(=O)N8CCCC8)c7F)c(-c7ccncc7)n6)cc5)CC4)CC3)cc2)C(=O)N1` [Compound 349, N-[5-(difluoromethyl)-3-[1-(4-{4-[(1-{4-[(3R)-2,6-dioxopiperidin-3-yl]phenyl}piperidin-4-yl)methyl]piperazin-1-yl}phenyl)-3-(pyridin-4-yl)-1H-pyrazol-4-yl]-2-fluorophenyl]pyrrolidine-1-sulfonamide], the DC50 on BRAF G469A (setting [9]), at BRAF G466V (setting [11]), on BRAF V600E (setting [13]) and on BRAF D594G (setting [15]) was below 10 nM in each case. In addition, the Dmax on BRAF G469A (setting [10]), at BRAF G466V (setting [12]), at BRAF V600E (setting [14]) and on BRAF D594G (setting [16]) was above 70% each time.

With `CCCS(=O)(=O)Nc1cccc(-c2nc(C(C)(C)C)sc2-c2ccnc(Nc3cnn(CC4CCN(C(=O)[C@H]5CC[C@H](Oc6ccc(C7CCC(=O)NC7=O)cn6)CC5)CC4)c3)n2)c1F` (mixture of isomers) [Compound 117, N-{3-[2-tert-butyl-5-(2-{[1-({1-[(1r,4r)-4-({5-[(3RS)-2,6-dioxopiperidin-3-yl]pyridin-2-yl}oxy)cyclohexanecarbonyl]piperidin-4-yl}methyl)-1H-pyrazol-4-yl]amino}pyrimidin-4-yl)-1,3-thiazol-4-yl]-2-fluorophenyl}propane-1-sulfonamide], the DC50 at BRAF G469A (setting [1]) was above 500 nM; on BRAF G466V (setting [3]), above 500 nM; at BRAF V600E (setting [5]), below 10 nM; on BRAF D594G (setting [7]) it was above 500 nM. For the same compound, the Dmax was below 30% on BRAF G469A (setting [2]), below 30% on BRAF G466V (setting [4]), above 70% on BRAF V600E (setting [6]) and 30 to 70% on BRAF D594G (setting [8]).

For `CCCS(=O)(=O)Nc1cccc(-c2cn(-c3ccc(N4CCN(CC5CCN(c6ccc([C@H]7CCC(=O)NC7=O)cc6)CC5)[C@H](C)C4)cc3)nc2-c2ccncc2)c1F` [Compound 378, N-[3-(1-{4-[(3R)-4-[(1-{4-[(3R)-2,6-dioxopiperidin-3-yl]phenyl}piperidin-4-yl)methyl]-3-methylpiperazin-1-yl]phenyl}-3-(pyridin-4-yl)-1H-pyrazol-4-yl)-2-fluorophenyl]propane-1-sulfonamide], the DC50 at BRAF G469A (setting [9]) was above 500 nM; at BRAF G466V (setting [11]) it was 10 to 50 nM; on BRAF V600E (setting [13]) it was 10 to 50 nM; on BRAF D594G (setting [15]), above 500 nM. Besides, the Dmax at BRAF G469A (setting [10]) is 30 to 70%; at BRAF G466V (setting [12]), 30 to 70%; on BRAF V600E (setting [14]), above 70%; at BRAF D594G (setting [16]), 30 to 70%.

Regarding `CCCS(=O)(=O)Nc1cccc(-c2nc(C(C)(C)C)sc2-c2ccnc(Nc3ccc(N4CCN(CC5CCN(c6ccc(C7CCC(=O)NC7=O)cn6)CC5)CC4)cc3)n2)c1F` (racemic) [Compound 47, Rac-N-[3-(2-tert-butyl-5-{2-[(4-{4-[(1-{5-[(3R)-2,6-dioxopiperidin-3-yl]pyridin-2-yl}piperidin-4-yl)methyl]piperazin-1-yl}phenyl)amino]pyrimidin-4-yl}-1,3-thiazol-4-yl)-2-fluorophenyl]propane-1-sulfonamide], the DC50 is above 500 nM at BRAF G469A (setting [1]), below 10 nM at BRAF G466V (setting [3]), below 10 nM at BRAF V600E (setting [5]) and 10 to 50 nM at BRAF D594G (setting [7]). In addition, the Dmax was 30 to 70% on BRAF G469A (setting [2]), above 70% on BRAF G466V (setting [4]), above 70% at BRAF V600E (setting [6]) and 30 to 70% on BRAF D594G (setting [8]).

For `O=C1CC[C@@H](c2ccc(N3CCC(CN4CCN(c5ccc(-n6cc(-c7cc(Cl)cc(NS(=O)(=O)N8CCCC8)c7F)c(-c7ccncc7)n6)cc5)CC4)CC3)cc2F)C(=O)N1` [Compound 384, N-{5-chloro-3-[1-(4-{4-[(1-{4-[(3S)-2,6-dioxopiperidin-3-yl]-3-fluorophenyl}piperidin-4-yl)methyl]piperazin-1-yl}phenyl)-3-(pyridin-4-yl)-1H-pyrazol-4-yl]-2-fluorophenyl}pyrrolidine-1-sulfonamide], the DC50 at BRAF G469A (setting [9]) is above 500 nM; at BRAF G466V (setting [11]), 10 to 50 nM; at BRAF V600E (setting [13]) it was 10 to 50 nM; on BRAF D594G (setting [15]), above 500 nM. Moreover, the Dmax on BRAF G469A (setting [10]) is 30 to 70%; on BRAF G466V (setting [12]) it was 30 to 70%; at BRAF V600E (setting [14]), above 70%; at BRAF D594G (setting [16]), 30 to 70%.

In the case of `CCN(C)S(=O)(=O)Nc1cc(Cl)cc(-c2cn(-c3ccc(N4CCN(CC5CCN(c6ccc(C7CCC(=O)NC7=O)cn6)CC5)CC4)cc3)nc2-c2ccncc2)c1F` (racemic) [Compound 308, Rac-(3R)-3-(6-{4-[(4-{4-[4-(5-chloro-3-{[ethyl(methyl)sulfamoyl]amino}-2-fluorophenyl)-3-(pyridin-4-yl)-1H-pyrazol-1-yl]phenyl}piperazin-1-yl)methyl]piperidin-1-yl}pyridin-3-yl)piperidine-2,6-dione], the DC50 on BRAF G469A (setting [9]) was 10 to 50 nM; on BRAF G466V (setting [11]), below 10 nM; on BRAF V600E (setting [13]), below 10 nM; at BRAF D594G (setting [15]), below 10 nM. The Dmax on BRAF G469A (setting [10]), on BRAF G466V (setting [12]), at BRAF V600E (setting [14]) and on BRAF D594G (setting [16]) was above 70% in each case.

For `CCCS(=O)(=O)Nc1cccc(-c2nc(CCC3CCN(C(=O)C4CCN(C(=O)C5CCN(c6ccc(C7CCC(=O)NC7=O)cn6)CC5)CC4)CC3)sc2-c2ccnc(N)n2)c1F` (racemic) [Compound 205, Rac-N-{3-[5-(2-aminopyrimidin-4-yl)-2-(2-{1-[1-(1-{5-[(3R)-2,6-dioxopiperidin-3-yl]pyridin-2-yl}piperidine-4-carbonyl)piperidine-4-carbonyl]piperidin-4-yl}ethyl)-1,3-thiazol-4-yl]-2-fluorophenyl}propane-1-sulfonamide], the DC50 at BRAF G469A (setting [1]) is above 500 nM; on BRAF G466V (setting [3]), above 500 nM; at BRAF V600E (setting [5]), below 10 nM; on BRAF D594G (setting [7]), above 500 nM. Besides, the greatest degradation seen (Dmax) is 30 to 70% at BRAF G469A (setting [2]), 30 to 70% on BRAF G466V (setting [4]), above 70% on BRAF V600E (setting [6]) and 30 to 70% at BRAF D594G (setting [8]).

The record behind these values is US20260317324A1, “BIFUNCTIONAL COMPOUNDS FOR DEGRADING BRAF VIA UBIQUITIN PROTEOSOME PATHWAY” (Nurix Therapeutics, Inc., priority 2023, published 2026).
